Laboratory results reported in patent publication US20260258033A1, “2,7-Naphthyridine Compounds as MASTL Inhibitors” (Pfizer Inc., priority 2022, published 2026).

Target: T1, Full-length human recombinant N-term FLAG-tagged MASTL protein (Homo sapiens, UniProt Q96GX5)
T1 sequence (Q96GX5 1-879): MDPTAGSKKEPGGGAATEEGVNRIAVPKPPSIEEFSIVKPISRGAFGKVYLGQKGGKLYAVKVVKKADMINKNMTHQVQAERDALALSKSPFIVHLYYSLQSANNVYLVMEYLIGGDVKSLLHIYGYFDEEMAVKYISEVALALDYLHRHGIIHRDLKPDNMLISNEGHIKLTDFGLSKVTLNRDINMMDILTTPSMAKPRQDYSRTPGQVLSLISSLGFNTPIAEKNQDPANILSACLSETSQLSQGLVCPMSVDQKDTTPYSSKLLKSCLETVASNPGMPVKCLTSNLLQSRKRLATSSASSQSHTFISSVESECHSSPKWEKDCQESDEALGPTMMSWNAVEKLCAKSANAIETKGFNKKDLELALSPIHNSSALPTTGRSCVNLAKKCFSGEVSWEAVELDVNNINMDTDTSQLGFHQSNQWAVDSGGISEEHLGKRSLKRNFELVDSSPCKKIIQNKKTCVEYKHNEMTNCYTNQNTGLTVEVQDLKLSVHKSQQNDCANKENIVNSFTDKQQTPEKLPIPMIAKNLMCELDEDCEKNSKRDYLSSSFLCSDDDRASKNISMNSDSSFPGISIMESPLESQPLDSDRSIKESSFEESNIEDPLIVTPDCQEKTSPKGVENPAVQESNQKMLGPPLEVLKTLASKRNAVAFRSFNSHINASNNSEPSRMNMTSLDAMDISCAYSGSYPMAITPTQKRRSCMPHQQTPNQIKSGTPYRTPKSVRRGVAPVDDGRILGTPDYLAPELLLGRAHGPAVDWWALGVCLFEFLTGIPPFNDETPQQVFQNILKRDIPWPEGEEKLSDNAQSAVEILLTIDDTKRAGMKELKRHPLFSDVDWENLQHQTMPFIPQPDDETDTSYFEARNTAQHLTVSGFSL
Test: MASTL enzyme kinase assay (CHEF PhosphoSens)
Conditions: MASTL Ki (nM), 3 nM MASTL, 1 mM ATP, room temperature; geometric mean of at least 3 independent determinations (* denotes n = 2)
Description: MASTL enzyme kinase assay was used to measure the inhibition constant (Ki) of Examples of the present invention.
Full-length human recombinant N-term FLAG-tagged MASTL protein (construct LJIC-3077G2), activated by CDK1, was produced at Pfizer Inc by expression in baculovirus-infected insect cells. All reagents were purchased from Sigma-Aldrich, Inc (St. Louis, MO), unless specified otherwise. Tween™ 20 detergent (10% Solution) was purchased from EMD Millipore Corp (Billerica, MA). The CHEF phosphoacceptor peptide substrate (AQT0693) was purchased from AssayQuant technologies, Inc (Marlboro, MA). […] The reactions contained 1 mM ATP and were initiated by the addition of enzyme. Initial reaction velocities were determined by following the fluorescence (λex=360 nm, λem=485 nm) of appropriate CHEF peptide substrate for 120 minutes in an end-point mode in a SpectraMax Paradigm Microplate Reader (Molecular Devices, LLC. San Jose, California). The extents of reactions were estimated to be <20%.

Row | Structure (SMILES) | Ki
1 | CNC(C)(COC)c1ccnc(Nc2cc3cc(-c4cnnn4C)nc(N)c3cn2)c1 (single isomer, unassigned) [Example 32, N^6-(4-(1-methoxy-2-(methylamino)propan-2-yl)pyridin-2-yl)-3-(1-methyl-1H-1,2,3-triazol-5-yl)-2,7-naphthyridine-1,6-diamine] | 0.087 nM
2 | CCC1(NC)CCc2c1ccnc2Nc1cc2cc(-c3cnnn3C)nc(N)c2cn1 (single isomer, unassigned) [Example 3, N^6-(5-ethyl-5-(methylamino)-6,7-dihydro-5H-cyclopenta[c]pyridin-1-yl)-3-(1-methyl-1H-1,2,3-triazol-5-yl)-2,7-naphthyridine-1,6-diamine] | 0.36 nM
3 | CN(C)C(C)(C)c1ccnc(Nc2cc3cc(-c4cnnn4C)nc(N)c3cn2)c1 [Example 36, N^6-(4-(2-(dimethylamino)propan-2-yl)pyridin-2-yl)-3-(1-methyl-1H-1,2,3-triazol-5-yl)-2,7-naphthyridine-1,6-diamine] | 0.061 nM
4 | CNC(C)(COC)c1ccnc(Nc2cc3cc(-c4cnnn4C)nc(N)c3cn2)c1 (single isomer, unassigned) [Example 33, N^6-(4-(1-methoxy-2-(methylamino)propan-2-yl)pyridin-2-yl)-3-(1-methyl-1H-1,2,3-triazol-5-yl)-2,7-naphthyridine-1,6-diamine] | 0.25 nM
5 | CCC(N)(CC)c1cc(Nc2cc3cc(-c4cnnn4C)nc(N)c3cn2)ncn1 [Example 23, N^6-(6-(3-aminopentan-3-yl)pyrimidin-4-yl)-3-(1-methyl-1H-1,2,3-triazol-5-yl)-2,7-naphthyridine-1,6-diamine] | 0.057 nM
6 | CNC(c1ccnc(Nc2cc3cc(-c4cnnn4C)nc(N)c3cn2)c1)C(C)(C)C (single isomer, unassigned) [Example 34, N^6-(4-(2,2-dimethyl-1-(methylamino)propyl)pyridin-2-yl)-3-(1-methyl-1H-1,2,3-triazol-5-yl)-2,7-naphthyridine-1,6-diamine] | 0.23 nM
7 | CNC(C)(c1ccnc(Nc2cc3cc(-c4cnnn4C)nc(N)c3cn2)c1)C(C)C (single isomer, unassigned) [Example 30, 3-(1-methyl-1H-1,2,3-triazol-5-yl)-N^6-(4-(3-methyl-2-(methylamino)butan-2-yl)pyridin-2-yl)-2,7-naphthyridine-1,6-diamine] | 0.036 nM
8 | CNC(C)(c1ccnc(Nc2cc3cc(-c4cnnn4C)nc(N)c3cn2)c1)C1CC1 (single isomer, unassigned) [Example 20, N^6-(4-(1-cyclopropyl-1-(methylamino)ethyl)pyridin-2-yl)-3-(1-methyl-1H-1,2,3-triazol-5-yl)-2,7-naphthyridine-1,6-diamine] | 0.049 nM

Second part, the compound after the results:

Row | Ki | Structure (SMILES)
9 | 0.065 nM | CCC(N)c1cc(Nc2cc3cc(-c4cnnn4C)nc(N)c3cn2)ncc1C (single isomer, unassigned) [Example 13, N^6-(4-(1-aminopropyl)-5-methylpyridin-2-yl)-3-(1-methyl-1H-1,2,3-triazol-5-yl)-2,7-naphthyridine-1,6-diamine]
10 | 0.12 nM | Cn1nncc1-c1cc2cc(Nc3cc(C(N)CC(F)(F)F)ccn3)ncc2c(N)n1 (single isomer, unassigned) [Example 17, N^6-(4-(1-amino-3,3,3-trifluoropropyl)pyridin-2-yl)-3-(1-methyl-1H-1,2,3-triazol-5-yl)-2,7-naphthyridine-1,6-diamine]
11 | 0.019 nM | CCn1nncc1-c1cc2cc(Nc3cc(C4(N)CCCC4)ccn3)ncc2c(N)n1 [Example 38, N^6-(4-(1-aminocyclopentyl)pyridin-2-yl)-3-(1-ethyl-1H-1,2,3-triazol-5-yl)-2,7-naphthyridine-1,6-diamine]
12 | 0.089 nM | CNC1(c2ccnc(Nc3cc4cc(-c5cnnn5C)nc(N)c4cn3)c2)CCC1 [Example 24, 3-(1-methyl-1H-1,2,3-triazol-5-y1)-N^6-(4-(1-(methylamino)cyclobutyl)pyridin-2-yl)-2,7-naphthyridine-1,6-diamine]
